Data set [1] has as its system Gl261. The experiment in a line: cells. Conditions: Mus musculus, GL261, 72 h, single replicate. On the set-up: Cell growth by dye staining of fixed cells, absorbance at 630 nm, independent of mitochondrial respiration. As for the experimental part: (§1) A colorimetric MTT cell metabolic activity assay was used to determine the cytotoxicity of Bis-PMSs 5 and 6. For these experiments, the HF-P4, BJ-hTERT, BLM, A-2058, U-2 OS, H1299 and BT-20 cells were cultured under standard conditions (37 °C, humidified atmosphere with 5% CO2 in air) in culture medium (DMEM, RPMI-1640, McCoy’s or EMEM with 10% FBS). Cells were plated in 96-well plates at a density of 5000 cells per well and grown for 24 h. The medium was then replaced with a medium containing Bis-PMSs 5 and 6, and cells were cultured for an additional 48 h. Afterwards, the medium was exchanged for medium with the MTT yellow tetrazolium dye (3-(4,5-dimethylthiazol-2-yl)-2,5-diphenyltetrazolium bromide, Sigma-Aldrich) and incubated for 2 h at 37 °C. After that, the yellow tetrazole dye was removed and DMSO was used to dissolve the reduced purple formazan formed in living cells. The absorbance of the converted dye was measured at a wavelength of 570 nm with the reference of 630 nm using a SpectraMax ABS Plus microplate reader (Molecular Devices). Experiments were performed in quadruplicate and repeated three times with similar results. In U251MG and GL261 cells, an assay assessing cell growth independent of mitochondrial respiration was used. Cells were plated in 96-well plates at a density of 5000 cells per well and grown for 24 h under standard conditions in culture medium (DMEM and RPMI-1640 with 10% FBS for U251MG and Gl261 cells, respectively). The medium was then replaced by that supplemented with Bis-PMSs 5 and 6. After 72 h of exposure, surviving cells were fixed and stained with [compound left out] blue (5 g/L in 50%, v/v, ethanol) and lysed with 1% sodium dodecyl sulfate, and the relative cell number was determined by reading absorbance at 630 nm using a 96-well plate reader (Sunrise; Tecan, Männedorf, Switzerland). The cell inhibitory concentration (IC) was calculated using the equation IC = (APMS well/mean Acontrol wells) × 100%. The half-maximal inhibitory concentration (IC50) was calculated from dose–response curves using GraphPad Prism software (v. 8.0.1, La Jolla, CA, USA). The selectivity indexes towards cancer cells were calculated as a ratio of the average of the IC50 values for HF-P4 and BJ-hTERT human fibroblasts and the IC50 value for the corresponding cancer cell line. For U251MG and Gl261 glioblastoma cells, the cytoselectivity was calculated against normal HF P4 fibroblast cells, which were analyzed using the same cytotoxicity assay. The cytotoxic activities of Bis-PMSs 5 and 6 were evaluated in normal (HF-P4 and BJ-hTERT fibroblasts) and malignant (BLM, A-2058, U-2 OS, H1299, BT-20) cells using a conventional MTT viability assay. For the measurements, cells were exposed to 0–10 µM of Bis-PMSs 5 and 6 under standard conditions in a complete cell culture medium and cell viability was measured after 48 h of treatment. In addition, cytotoxicity was tested in U251MG and Gl261 glioma cells using an assay that assesses cell growth independent of mitochondrial respiration (Figures S10 and S11 and Table S3).

The subject of data set [2] is U251. The experiment in a line: cells. More on the design: Cell growth by dye staining of fixed cells, absorbance at 630 nm, independent of mitochondrial respiration. The conditions noted are these: Homo sapiens, U-251, 72 h, single replicate. As for the experimental part:
as §1

Data set [3] deals with H1299. The experiment in a line: cells. More on the design: MTT metabolic activity assay, absorbance at 570 nm. The conditions noted are these: Homo sapiens, NCI-H1299, 48 h, single replicate. As for the experimental part:
as §1

Data set [4] has as its system BT-20. Description: cells. On the set-up: MTT metabolic activity assay, absorbance at 570 nm. Conditions: Homo sapiens, BT-20, 48 h, single replicate. As for the experimental part: as §1
For data set [5], the system named is U2-OS. The experiment in a line: cells. On the set-up: MTT metabolic activity assay, absorbance at 570 nm. Conditions: Homo sapiens, U2OS, 48 h, single replicate. The procedure: as §1
Data set [6] has as its system BLM. Description: cells. More on the design: MTT metabolic activity assay, absorbance at 570 nm. The conditions noted are these: 48 h, single replicate. As for the experimental part:
as §1

The subject of data set [7] is A2058. Description: cells. On the set-up: MTT metabolic activity assay, absorbance at 570 nm. The conditions noted are these: Homo sapiens, A2058, 48 h, single replicate. The procedure: as §1
Data set [8] addresses T1, IL-6R (IL-6 receptor containing α and β subunits) (Homo sapiens, UniProt P08887+P40189).
T1 construct: gene IL6R; commercial IL-6R (Bio-Techne R&D Systems), said to contain alpha and beta subunits
T1 sequence (P08887 20-365 limits assumed): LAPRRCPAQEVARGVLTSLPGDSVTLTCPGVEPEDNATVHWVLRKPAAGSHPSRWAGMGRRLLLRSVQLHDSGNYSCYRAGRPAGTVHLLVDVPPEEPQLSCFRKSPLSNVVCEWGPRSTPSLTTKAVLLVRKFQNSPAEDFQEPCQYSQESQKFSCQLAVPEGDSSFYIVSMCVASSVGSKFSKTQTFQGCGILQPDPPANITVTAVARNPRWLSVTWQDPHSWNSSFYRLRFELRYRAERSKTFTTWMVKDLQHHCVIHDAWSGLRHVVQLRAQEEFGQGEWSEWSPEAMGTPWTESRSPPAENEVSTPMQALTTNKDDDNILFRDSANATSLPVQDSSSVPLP
T1 sequence (P40189 23-619 limits assumed): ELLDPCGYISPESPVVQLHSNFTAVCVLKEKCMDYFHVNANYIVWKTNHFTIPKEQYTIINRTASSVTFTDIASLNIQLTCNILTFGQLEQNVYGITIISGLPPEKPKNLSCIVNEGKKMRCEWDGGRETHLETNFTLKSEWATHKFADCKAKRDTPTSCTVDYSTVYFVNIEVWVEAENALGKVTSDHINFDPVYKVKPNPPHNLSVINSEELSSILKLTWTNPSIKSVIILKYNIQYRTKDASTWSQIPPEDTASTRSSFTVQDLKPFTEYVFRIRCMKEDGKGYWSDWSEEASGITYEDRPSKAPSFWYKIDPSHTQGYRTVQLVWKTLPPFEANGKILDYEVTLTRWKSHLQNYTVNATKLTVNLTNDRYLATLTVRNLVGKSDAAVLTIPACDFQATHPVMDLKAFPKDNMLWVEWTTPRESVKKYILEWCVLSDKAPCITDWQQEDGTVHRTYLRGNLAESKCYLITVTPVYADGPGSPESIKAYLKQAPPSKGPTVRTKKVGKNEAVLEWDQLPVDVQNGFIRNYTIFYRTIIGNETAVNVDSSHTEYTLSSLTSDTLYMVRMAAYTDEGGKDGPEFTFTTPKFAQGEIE
The experiment in a line: microscale thermophoresis (T-jump). The class given is binding. Conditions: read-out: dissociation constant.

Data set [9] in a line: in vitro. On the set-up: MTT metabolic activity assay, absorbance at 570 nm. Conditions: human, single replicate. The procedure:
as §1

The test system of data set [10] is BJ-hTERT. The experiment in a line: in vitro. The conditions noted are these: single replicate, 48 h. More on the design: MTT metabolic activity assay, absorbance at 570 nm. As for the experimental part: as §1
Data set [11] has as its system HFP4. The experiment in a line: in vitro. More on the design: MTT metabolic activity assay, absorbance at 570 nm. The conditions noted are these: single replicate, 48 h. The procedure: as §1
The target in data set [12] is IL-6R (Homo sapiens) (UniProt P08887). The conditions noted are these: cited from earlier work.
[13] abbreviates: replicate 1, read-out: Bis-PMS 5 (IC50 / µM).
The mark [14] stands for this setting: replicate 2, read-out: Bis-PMS 5 (IC50 / µM).
Setting [15] is: replicate 3, read-out: Bis-PMS 5 (IC50 / µM).
The mark [16] stands for this setting: replicate 1, read-out: Bis-PMS 6 (IC50 / µM).
Setting [17] is: replicate 2, read-out: Bis-PMS 6 (IC50 / µM).
[18] abbreviates: replicate 3, read-out: Bis-PMS 6 (IC50 / µM).

Counter-ions that a name gives are not always drawn. Like-named read-outs stand apart in the source and are kept apart here.

Take `CN1C(=CC=C(C=CC2=[N+](C)c3ccccc3C2(C)C)c2ccc(C(C=CC3=[N+](C)c4ccccc4C3(C)C)=CC=C3N(C)c4ccccc4C3(C)C)cc2)C(C)(C)c2ccccc21` [compound 5, p-bis-pentamethinium salt 5]: the IC50 in data set [1] (setting [13]) came out at 0.9 µM; in data set [1] (setting [14]) it was 1.04 µM; in data set [2] (setting [13]), 0.501 µM; in data set [2] (setting [14]), 0.938 µM; in data set [3] (setting [13]) it was 2.69 µM; in data set [3] (setting [14]), 2.82 µM. The IC50 was 0.832 µM in data set [4] (setting [13]); 0.38 µM in data set [4] (setting [14]); 0.891 µM in data set [4] (setting [15]); 0.562 µM in data set [5] (setting [13]); 0.631 µM in [5] (setting [14]); 0.295 µM in [5] (setting [15]). Also, the IC50 in data set [6] (setting [13]) came to 0.417 µM; in [6] (setting [15]), 0.183 µM; in data set [7] (setting [14]) it was 0.396 µM; in [7] (setting [15]) it was 0.178 µM. Besides, the Kd in data set [8] is 0.0265 ± 0.0025 µM. In data set [9] (bj-htert cells, Bis-PMS 5 (IC50 / µM), replicate 2), this compound yielded a CC50 at 48 h of 1.7 µM. Also, the CC50 in data set [10] (setting [15]) is 1.62 µM; in data set [11] (setting [13]), 1.78 µM; in [11] (setting [14]) it was 0.427 µM; in data set [11] (setting [15]), 0.757 µM.
Turning to `CN1C(=CC=C(C=CC2=[N+](C)c3ccccc3C2(C)C)c2cccc(C(C=CC3=[N+](C)c4ccccc4C3(C)C)=CC=C3N(C)c4ccccc4C3(C)C)c2)C(C)(C)c2ccccc21` [compound 6, m-bis-pentamethinium salt 6], the IC50 amounted to 0.218 µM in data set [1] (setting [16]); 0.319 µM in data set [1] (setting [17]); 0.485 µM in [2] (setting [16]); 0.526 µM in [2] (setting [17]); 0.199 µM in data set [3] (setting [17]); 0.138 µM in data set [3] (setting [18]). Moreover, the IC50 in [4] (setting [16]) amounted to 0.724 µM; in data set [4] (setting [17]), 0.617 µM; in data set [4] (setting [18]), 0.997 µM; in [5] (setting [16]), 0.257 µM; in data set [5] (setting [17]), 0.347 µM; in data set [5] (setting [18]), 0.123 µM. The IC50 in data set [6] (setting [16]) worked out at 0.933 µM; in [6] (setting [18]), 1.91 µM; in data set [7] (setting [16]), 0.191 µM; in [7] (setting [17]), 1.07 µM; in data set [7] (setting [18]), 0.646 µM. Moreover, the Kd in data set [8] worked out at 0.304 ± 0.0276 µM. The compound also showed a CC50 at 48 h in data set [9] (hf-p4 cells, Bis-PMS 6 (IC50 / µM), replicate 1) of 1.05 µM. Also, the CC50 was 1.66 µM in data set [10] (setting [17]), 0.776 µM in [10] (setting [18]) and 1.95 µM in data set [11] (setting [18]).
On to tocilizumab, for which the Kd in data set [12] is 0.00254 µM.

The values above are taken from paper PMC9416741, “New-Generation Heterocyclic Bis-Pentamethinium Salts as Potential Cytostatic Drugs with Dual IL-6R and Mitochondria-Targeting Activity” (Pharmaceutics, 2022).
